Assays:
Assay type in all cases: in vivo
[1] = tested on: Cabbage Looper (Trichoplusia ni); assay: Bioassays on CL, 128-well diet tray assay; conditions: Trichoplusia ni, 168 h; 50 μg/cm^2 on artificial diet, second instar larvae, five to seven days; read-out: CL % Control (or Mortality) rating
In short: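 Second-instar larvae (1–5 per well) were fed diet surface-treated with 50 μg/cm^2 compound, eight wells each. After five to seven days at 25° C. under a 14:10 photoperiod, mortality was scored per well and the eight wells averaged.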

[2] = tested on: Beet Armyworm (Spodoptera exigua); assay: Bioassays on BAW, 128-well diet tray assay; conditions: Spodoptera exigua, 168 h; 50 μg/cm^2 on artificial diet, second instar larvae, five to seven days; read-out: BAW % Control (or Mortality) rating
[3] = tested on: Yellow Fever Mosquito (Aedes aegypti); assay: Bioassays on Yellow Fever Mosquito larvae, 96-well plate; conditions: from 4000 ppm DMSO master plate, about 1 day-old larvae, 3 days
Description: Master plates containing 400 μg of a molecule dissolved in 100 μL of dimethyl sulfoxide (DMSO) (equivalent to a 4000 ppm solution) are used. A master plate of assembled molecules contains 15 μL per well. To this plate, 135 μL of a 90:10 water:acetone mixture is added to each well. A robot (Biomek® NXP Laboratory Automation Workstation) is programmed to dispense 15 μL aspirations from the master plate into an empty 96-well shallow plate (“daughter” plate). There are 6 reps (“daughter” plates) created per master. The created daughter plates are then immediately infested with YFM larvae.
The day before plates are to be treated, mosquito eggs are placed in Millipore water containing liver powder to begin hatching (4 g. into 400 mL). After the daughter plates are created using the robot, they are infested with 220 μL of the liver powder/larval mosquito mixture (about 1 day-old larvae). After plates are infested with mosquito larvae, a non-evaporative lid is used to cover the plate to reduce drying. Plates are held at room temperature for 3 days prior to grading. After 3 days, each well is observed and scored based on mortality. The results are indicated in the table entitled “Table ABC: Biological Results” (See Table Section). AGRICULTURALLY ACCEPTABLE ACID ADDITION SALTS, SALT DERIVATIVES, SOLVATES, ESTER DERIVATIVES, POLYMORPHS, ISOTOPES, AND RADIONUCLIDES

## C[C@H](C[S+]([O-])CC(F)(F)F)NC(=O)c1ccc(/C=C/C(c2cc(Cl)c(C#N)c(Cl)c2)C(F)(F)F)cc1C(F)(F)F (stereo partly drawn) [F53, 4-((E)-3-(3,5-Dichloro-4-cyanophenyl)-4,4,4-trifluorobut-1-en-1-yl)-N-((2R)-1-((2,2,2-trifluoroethyl)sulfinyl)propan-2-yl)-2-(trifluoromethyl)benzamide]
[1]
  mortality at 50 µg/cm2: 50 to 100%
[2]
  mortality at 50 µg/cm2: 50 to 100%
[3]
  YFM % Control (or Mortality) rating: A (80-100)

## CCc1cc(/C=C/C(c2cc(Cl)c(Cl)c(Cl)c2)C(F)(F)F)ccc1C(=O)N[C@H](C)CSCC(F)(F)F (stereo partly drawn) [F54, 2-Ethyl-4-((E)-4,4,4-trifluoro-3-(3,4,5-trichlorophenyl)but-1-en-1-yl)-N—((R)-1-((2,2,2-trifluoroethyl)thio)propan-2-yl)benzamide]
[1]
  mortality at 50 µg/cm2: 50 to 100%
[2]
  mortality at 50 µg/cm2: 50 to 100%
[3]
  YFM % Control (or Mortality) rating: A (80-100)

## Cc1cc(/C=C/C(c2cc(Br)cc(Br)c2)C(F)(F)F)ccc1C(=O)N[C@H](C)CSCC(F)(F)F (stereo partly drawn) [F57, 4-((E)-3-(3,5-Dibromophenyl)-4,4,4-trifluorobut-1-en-1-yl)-2-methyl-N—((R)-1-((2,2,2-trifluoroethyl)thio)propan-2-yl)benzamide]
[1]
  mortality at 50 µg/cm2: 50 to 100%
[2]
  mortality at 50 µg/cm2: 50 to 100%
[3]
  YFM % Control (or Mortality) rating: A (80-100)

## C[C@H](C[S+]([O-])CC(F)(F)F)NC(=O)c1ccc(/C=C/C(c2cc(Br)cc(Br)c2)C(F)(F)F)cc1C(F)(F)F (stereo partly drawn) [F60, 4-((E)-3-(3,5-Dibromophenyl)-4,4,4-trifluorobut-1-en-1-yl)-N-((2R)-1-((2,2,2-trifluoroethyl)sulfinyl)propan-2-yl)-2-(trifluoromethyl)benzamide]
[1]
  mortality at 50 µg/cm2: 50 to 100%
[2]
  mortality at 50 µg/cm2: 50 to 100%
[3]
  YFM % Control (or Mortality) rating: A (80-100)

## C[C@H](CS(=O)(=O)CC(F)(F)F)NC(=O)c1ccc(/C=C/C(c2cc(Br)cc(Br)c2)C(F)(F)F)cc1C(F)(F)F (stereo partly drawn) [F61, 4-((E)-3-(3,5-Dibromophenyl)-4,4,4-trifluorobut-1-en-1-yl)-N—((R)-1-((2,2,2-trifluoroethyl)sulfonyl)propan-2-yl)-2-(trifluoromethyl)benzamide]
[1]
  mortality at 50 µg/cm2: 50 to 100%
[2]
  mortality at 50 µg/cm2: 50 to 100%
[3]
  YFM % Control (or Mortality) rating: A (80-100)

## CCSC[C@@H](C)NC(=O)c1ccc(/C=C/C(c2cc(Cl)c(Cl)c(Cl)c2)C(F)(F)F)cc1C(F)(F)F (stereo partly drawn) [F62, N—((R)-1-(Ethylthio)propan-2-yl)-4-((E)-4,4,4-trifluoro-3-(3,4,5-trichlorophenyl)but-1-en-1-yl)-2-(trifluoromethyl)benzamide]
[1]
  mortality at 50 µg/cm2: 50 to 100%
[2]
  mortality at 50 µg/cm2: 50 to 100%
[3]
  YFM % Control (or Mortality) rating: A (80-100)

## O=C(NC1(C[S+]([O-])CC(F)(F)F)CC1)c1ccc(/C=C/C(c2cc(Cl)c(Cl)c(Cl)c2)C(F)(F)F)cc1C(F)(F)F (stereo not drawn) [F63, (E)-4-(4,4,4-Trifluoro-3-(3,4,5-trichlorophenyl)but-1-en-1-yl)-N-(1-(((2,2,2-trifluoroethyl)sulfinyl)methyl)cyclopropyl)-2-(trifluoromethyl)benzamide]
[1]
  mortality at 50 µg/cm2: 50 to 100%
[2]
  mortality at 50 µg/cm2: 50 to 100%
[3]
  YFM % Control (or Mortality) rating: A (80-100)

## C[C@H](CSCC(F)(F)F)NC(=O)c1ccc(/C=C/C(c2cc(Br)cc(Br)c2)C(F)(F)F)cc1Cl (stereo partly drawn) [F64, 2-Chloro-4-((E)-3-(3,5-dibromophenyl)-4,4,4-trifluorobut-1-en-1-yl)-N—((R)-1-((2,2,2-trifluoroethyl)thio)propan-2-yl)benzamide]
[1]
  mortality at 50 µg/cm2: 50 to 100%
[2]
  mortality at 50 µg/cm2: 50 to 100%
[3]
  YFM % Control (or Mortality) rating: A (80-100)

## C[C@H](CS(=O)(=O)CC(F)(F)F)NC(=O)c1ccc(/C=C/C(c2cc(Br)cc(Br)c2)C(F)(F)F)cc1Cl (stereo partly drawn) [F65, 2-Chloro-4-((E)-3-(3,5-dibromophenyl)-4,4,4-trifluorobut-1-en-1-yl)-N—((R)-1-((2,2,2-trifluoroethyl)sulfonyl)propan-2-yl)benzamide]
[1]
  mortality at 50 µg/cm2: 50 to 100%
[2]
  mortality at 50 µg/cm2: 50 to 100%
[3]
  YFM % Control (or Mortality) rating: A (80-100)

## Cc1cc(/C=C/C(c2cc(Br)cc(Br)c2)C(F)(F)F)ccc1C(=O)N[C@H](C)CS(=O)(=O)CC(F)(F)F (stereo partly drawn) [F66, 4-((E)-3-(3,5-Dibromophenyl)-4,4,4-trifluorobut-1-en-1-yl)-2-methyl-N—((R)-1-((2,2,2-trifluoroethyl)sulfonyl)propan-2-yl)benzamide]
[1]
  mortality at 50 µg/cm2: 50 to 100%
[2]
  mortality at 50 µg/cm2: 50 to 100%
[3]
  YFM % Control (or Mortality) rating: A (80-100)

## C[C@H](CSCC(F)(F)F)NC(=O)c1ccc(/C=C/C(c2cc(Cl)c(Cl)c(Cl)c2)C(F)(F)F)cc1Cl (stereo partly drawn) [F67, 2-Chloro-4-((E)-4,4,4-trifluoro-3-(3,4,5-trichlorophenyl)but-1-en-1-yl)-N—((R)-1-((2,2,2-trifluoroethyl)thio)propan-2-yl)benzamide]
[1]
  mortality at 50 µg/cm2: 50 to 100%
[2]
  mortality at 50 µg/cm2: 50 to 100%
[3]
  YFM % Control (or Mortality) rating: A (80-100)

## CC[S+]([O-])C[C@@H](C)NC(=O)c1ccc(/C=C/C(c2cc(Cl)c(Cl)c(Cl)c2)C(F)(F)F)cc1C(F)(F)F (stereo partly drawn) [F69, N-((2R)-1-(Ethylsulfinyl)propan-2-yl)-4-((E)-4,4,4-trifluoro-3-(3,4,5-trichlorophenyl)but-1-en-1-yl)-2-(trifluoromethyl)benzamide]
[1]
  mortality at 50 µg/cm2: 50 to 100%
[2]
  mortality at 50 µg/cm2: 50 to 100%
[3]
  YFM % Control (or Mortality) rating: A (80-100)

## CCCSC[C@@H](C)NC(=O)c1ccc(/C=C/C(c2cc(Cl)c(Cl)c(Cl)c2)C(F)(F)F)cc1C(F)(F)F (stereo partly drawn) [F70, N—((R)-1-(Propylthio)propan-2-yl)-4-((E)-4,4,4-trifluoro-3-(3,4,5-trichlorophenyl)but-1-en-1-yl)-2-(trifluoromethyl)benzamide]
[1]
  mortality at 50 µg/cm2: 50 to 100%
[2]
  mortality at 50 µg/cm2: 50 to 100%
[3]
  YFM % Control (or Mortality) rating: A (80-100)

## CCc1cc(/C=C/C(c2cc(Cl)c(Cl)c(Cl)c2)C(F)(F)F)ccc1C(=O)N[C@H](C)CS(=O)(=O)CC(F)(F)F (stereo partly drawn) [F71, 2-Ethyl-4-((E)-4,4,4-trifluoro-3-(3,4,5-trichlorophenyl)but-1-en-1-yl)-N—((R)-1-((2,2,2-trifluoroethyl)sulfonyl)propan-2-yl)benzamide]
[1]
  mortality at 50 µg/cm2: 50 to 100%
[2]
  mortality at 50 µg/cm2: 50 to 100%
[3]
  YFM % Control (or Mortality) rating: A (80-100)

## C[C@H](C[S+]([O-])CC(F)(F)F)NC(=O)c1ccc(/C=C/C(c2cc(Br)cc(Br)c2)C(F)(F)F)cc1Cl (stereo partly drawn) [F72, 2-Chloro-4-((E)-3-(3,5-dibromophenyl)-4,4,4-trifluorobut-1-en-1-yl)-N-((2R)-1-((2,2,2-trifluoroethyl)sulfinyl)propan-2-yl)benzamide]
[1]
  mortality at 50 µg/cm2: 50 to 100%
[2]
  mortality at 50 µg/cm2: 50 to 100%
[3]
  YFM % Control (or Mortality) rating: A (80-100)

## Cc1cc(/C=C/C(c2cc(Br)cc(Br)c2)C(F)(F)F)ccc1C(=O)N[C@H](C)C[S+]([O-])CC(F)(F)F (stereo partly drawn) [F73, 4-((E)-3-(3,5-Dibromophenyl)-4,4,4-trifluorobut-1-en-1-yl)-2-methyl-N-((2R)-1-((2,2,2-trifluoroethyl)sulfinyl)propan-2-yl)benzamide]
[1]
  mortality at 50 µg/cm2: 50 to 100%
[2]
  mortality at 50 µg/cm2: 50 to 100%
[3]
  YFM % Control (or Mortality) rating: A (80-100)

## CC(C)CSC[C@@H](C)NC(=O)c1ccc(/C=C/C(c2cc(Cl)c(Cl)c(Cl)c2)C(F)(F)F)cc1C(F)(F)F (stereo partly drawn) [F85, N—((R)-1-(Isobutylthio)propan-2-yl)-4-((E)-4,4,4-trifluoro-3-(3,4,5-trichlorophenyl)but-1-en-1-yl)-2-(trifluoromethyl)benzamide]
[1]
  mortality at 50 µg/cm2: 50 to 100%
[2]
  mortality at 50 µg/cm2: 50 to 100%
[3]
  YFM % Control (or Mortality) rating: A (80-100)

## CC(C)SC[C@@H](C)NC(=O)c1ccc(/C=C/C(c2cc(Cl)c(Cl)c(Cl)c2)C(F)(F)F)cc1C(F)(F)F (stereo partly drawn) [F86, N-((R)-1-(Isopropylthio)propan-2-yl)-4-((E)-4,4,4-trifluoro-3-(3,4,5-trichlorophenyl)but-1-en-1-yl)-2-(trifluoromethyl) benzamide]
[1]
  mortality at 50 µg/cm2: 50 to 100%
[2]
  mortality at 50 µg/cm2: 50 to 100%
[3]
  YFM % Control (or Mortality) rating: A (80-100)

## CC(C)C[S+]([O-])C[C@@H](C)NC(=O)c1ccc(/C=C/C(c2cc(Cl)c(Cl)c(Cl)c2)C(F)(F)F)cc1C(F)(F)F (stereo partly drawn) [F87, N-((2R)-1-(Isobutylsulfinyl)propan-2-yl)-4-((E)-4,4,4-trifluoro-3-(3,4,5-trichlorophenyl)but-1-en-1-yl)-2-(trifluoromethyl)benzamide]
[1]
  mortality at 50 µg/cm2: 50 to 100%
[2]
  mortality at 50 µg/cm2: 50 to 100%
[3]
  YFM % Control (or Mortality) rating: A (80-100)

## C[C@H](CSCC(F)(F)F)NC(=O)c1ccc(/C=C/C(c2cc(Cl)cc(Cl)c2)C(F)(F)F)cc1C(F)(F)F (stereo partly drawn) [F88, 4-((E)-3-(3,5-Dichlorophenyl)-4,4,4-trifluorobut-1-en-1-yl)-N—((R)-1-((2,2,2-trifluoroethyl)thio)propan-2-yl)-2-(trifluoromethyl)benzamide]
[1]
  mortality at 50 µg/cm2: 50 to 100%
[2]
  mortality at 50 µg/cm2: 50 to 100%
[3]
  YFM % Control (or Mortality) rating: A (80-100)
